{"source": "paper PMC2223489", "about": "“Influence of single and multiple doses of amifostine on the efficacy and the pharmacokinetics of carboplatin in mice” (British Journal of Cancer, 1997)", "key": {"[1]": {"test_system": "human ovarian cancer xenograft OVCAR-3", "assay": "Anti-tumour activity in s.c. OVCAR-3 xenografts in nude mice", "assay_type": "in vivo", "settings": "for Growth inhibition (%) (Day): weekly x 2; for Anti-tumour activity (in words): OVCAR-3, carboplatin at the MTD of 60 mg kg-1, amifostine given three times", "procedure": "(§1) British Joumal of Cancer (1997) 75(10), 1439-1446 ? […] The present study was carried out in well-established human ovarian cancer xenografts OVCAR-3, A2780 and FMa grown subcutaneously in the nude mouse. […] Its anti-tumour activity is assumed to result from the formation of platinum (Pt)-DNA adducts. The clinical use of carboplatin is limited by myelosuppression at a dose in the steep part of the dose-response curve. Therefore, much effort has been put into reducing the toxic side-effects to allow the administration of higher doses of carboplatin. Amifostine [Ethyol, WR-2721, S-2-(3-aminopropylamino)- ethylphosphorothioic acid], initially developed as a radioprotector, is approved for use as a protector against chemotherapy-induced toxicities in the USA and Europe (van der Vijgh and Peters, 1994). […] Such an approach is incorporated into clinical trials in which amifostine is given three times, just before and 2 and 4 h after carboplatin (Betticher et al, 1995; Vermorken et al, 1995). To date, clinical data are available for only a small number of patients. The Amifostine H2N - (CH2)3 - NH - (CH2)2 - S - P03H2 41 alkaline phosphatase WR-1 065 H2N - (CH2)3 - NH - (CH2)2 - S - H 4, oxidation Disulphides H2N - (CH2)3 - NH - (CH2)2 - S - S - R Figure 1 Structural formulas of amifostine, its active metabolite WR-1 065 and the disulphides [with WR-1 065 itself or with endogenous thiols (RSH)] […] However, the influence of multiple doses of amifostine on the anti-tumour activity of carboplatin was not studied. In the present experiments we investigated the influence of multiple doses of amifostine on the efficacy of carboplatin in tumour-bearing nude mice. We also investigated the influence of one and three doses of amifostine on the pharmacokinetics of carboplatin and the formation of Pt-DNA adducts in order to inter- pret the efficacy of carboplatin in the presence of amifostine. Furthermore, we determined the influence of a single dose and multiple doses of amifostine on the body temperature in nude mice."}, "[2]": {"test_system": "human ovarian cancer xenograft FMa", "assay": "Anti-tumour activity in s.c. FMa xenografts in nude mice", "assay_type": "in vivo", "settings": "for Anti-tumour activity (in words): carboplatin at the MTD of 60 mg kg-1, amifostine given three times; for Growth inhibition (%) (Day): weekly x 2", "procedure": "as §1"}, "[3]": {"assay": "Toxicity (weight loss, toxic deaths) in xenograft-bearing nude mice", "assay_type": "in vivo, female athymic nude mice", "settings": "weekly x 2", "procedure": "as §1"}, "[4]": {"test_system": "human ovarian cancer xenograft A2780", "assay": "Anti-tumour activity in s.c. A2780 xenografts in nude mice", "assay_type": "in vivo", "settings": "for Growth inhibition (%) (Day): Table 1, carboplatin 60 mg kg-1 i.v. and/or amifostine 3 x 200 mg kg-1 i.p., weekly x 2; for Anti-tumour activity (in words): A2780, carboplatin at the MTD of 60 mg kg-1, amifostine given three times", "procedure": "as §1"}, "[5]": {"set-up": "method as in Treskes et al, 1994", "settings": "given on days 0 and 7; allowing 10% weight loss within 2 weeks after the first injection; ref Treskes et al, 1994; cited from earlier work"}, "DNA": {"test_system": "DNA", "assay": "Pt-DNA adduct levels in tissues of OVCAR-3-bearing nude mice (competitive ELISA)", "assay_type": "in vivo", "settings": "carboplatin 60 mg kg-1 alone or plus one dose of amifostine", "procedure": "as §1"}, "[6]": {"assay": "Body temperature (intrarectal) in non-tumour-bearing nude mice", "assay_type": "in vivo", "settings": "carboplatin 60 mg kg-1 alone; in the 24 h following injection", "procedure": "British Joumal of Cancer (1997) 75(10), 1439-1446 ? […] The present study was carried out in well-established human ovarian cancer xenografts OVCAR-3, A2780 and FMa grown subcutaneously in the nude mouse. […] Its anti-tumour activity is assumed to result from the formation of platinum (Pt)-DNA adducts. The clinical use of carboplatin is limited by myelosuppression at a dose in the steep part of the dose-response curve. Therefore, much effort has been put into reducing the toxic side-effects to allow the administration of higher doses of carboplatin. Amifostine [Ethyol, WR-2721, S-2-(3-aminopropylamino)- ethylphosphorothioic acid], initially developed as a radioprotector, is approved for use as a protector against chemotherapy-induced toxicities in the USA and Europe (van der Vijgh and Peters, 1994). […] Such an approach is incorporated into clinical trials in which amifostine is given three times, just before and 2 and 4 h after carboplatin (Betticher et al, 1995; Vermorken et al, 1995). To date, clinical data are available for only a small number of patients. […] Furthermore, we determined the influence of a single dose and multiple doses of amifostine on the body temperature in nude mice."}, "[7]": {"assay": "Pharmacokinetics of total platinum in OVCAR-3-bearing nude mice (flameless AAS)", "assay_type": "in vivo", "settings": "0.5-24 h, carboplatin 60 mg kg-1 i.v. alone or + single dose amifostine 200 mg kg-1 i.p.", "procedure": "as §1"}, "[8]": {"settings": "OVCAR-3, day 28, Table 1, carboplatin 60 mg kg-1 i.v. and/or amifostine 3 x 200 mg kg-1 i.p."}, "[9]": {"settings": "OVCAR-3, day 35, Table 1, carboplatin 60 mg kg-1 i.v. and/or amifostine 3 x 200 mg kg-1 i.p."}, "[10]": {"settings": "day 29, Table 1, carboplatin 60 mg kg-1 i.v. and/or amifostine 3 x 200 mg kg-1 i.p."}, "[11]": {"settings": "day 36, Table 1, carboplatin 60 mg kg-1 i.v. and/or amifostine 3 x 200 mg kg-1 i.p."}, "[12]": {"settings": "A2780-bearing mice, Table 1, carboplatin 60 mg kg-1 i.v. and/or amifostine 3 x 200 mg kg-1 i.p."}, "[13]": {"settings": "FMa-bearing mice, Table 1, carboplatin 60 mg kg-1 i.v. and/or amifostine 3 x 200 mg kg-1 i.p."}, "[14]": {"settings": "OVCAR-3-bearing mice, Table 1, carboplatin 60 mg kg-1 i.v. and/or amifostine 3 x 200 mg kg-1 i.p."}}, "data": [{"smiles": "NCCCNCCSP(=O)(O)O", "note": "[amifostine, S-2-(3-aminopropylamino)-ethylphosphorothioic acid]", "values": [{"measurement": "Growth inhibition (%) (Day)", "setting": "[1]; [8]", "value": 0.0, "unit": "%"}, {"measurement": "Growth inhibition (%) (Day)", "setting": "[1]; [9]", "value": 0.0, "unit": "%"}, {"measurement": "Anti-tumour activity (in words)", "setting": "[1]", "value": "did not have any anti-tumour activity"}, {"measurement": "Anti-tumour activity (in words)", "setting": "[2]", "value": "did not have any anti-tumour activity"}, {"measurement": "Growth inhibition (%) (Day)", "setting": "[2]; [10]", "value": 20.3, "unit": "%"}, {"measurement": "Growth inhibition (%) (Day)", "setting": "[2]; [11]", "value": 21.5, "unit": "%"}, {"measurement": "Toxic deaths", "setting": "[3]; [12]", "value": "2/6"}, {"measurement": "Toxic deaths", "setting": "[3]; [13]", "value": "0/6"}, {"measurement": "Toxic deaths", "setting": "[3]; [14]", "value": "1/6"}, {"measurement": "Growth inhibition (%) (Day)", "setting": "[4]; A2780, day 11", "value": 31.1, "unit": "%"}, {"measurement": "Growth inhibition (%) (Day)", "setting": "[4]; A2780, day 14", "value": 17.4, "unit": "%"}, {"measurement": "Anti-tumour activity (in words)", "setting": "[4]", "value": "did not have any anti-tumour activity"}]}, {"smiles": "N.N.O=C([O-])C1(C(=O)[O-])CCC1.[Pt+2]", "note": "[carboplatin, cis-diammine( 1,1 -cyclobutanedicarboxylato)plat- inum(II)]", "values": [{"measurement": "Maximum tolerated dose (MTD) of carboplatin", "setting": "[5]", "value": 60, "unit": "mg kg-'"}, {"measurement": "Ratio AUC Pt-DNA adducts/AUC total platinum, kidney", "setting": "DNA", "value": 0.51}, {"measurement": "Ratio AUC Pt-DNA adducts/AUC total platinum, liver", "setting": "DNA", "value": 0.23}, {"measurement": "Ratio AUC Pt-DNA adducts/AUC total platinum, tumour tissue", "setting": "DNA", "value": 0.56}, {"measurement": "Body temperature (not decreased)", "setting": "[6]", "value": "37 0C"}, {"measurement": "Growth inhibition (%) (Day)", "setting": "[1]; OVCAR-3, day 20, Table 2, carboplatin 60 mg kg-1 i.v. alone or + amifostine 1 x 200 mg kg-1 i.p.", "value": 88.5, "unit": "%"}, {"measurement": "Growth inhibition (%) (Day)", "setting": "[1]; OVCAR-3, day 27, Table 2, carboplatin 60 mg kg-1 i.v. alone or + amifostine 1 x 200 mg kg-1 i.p.", "value": 92.4, "unit": "%"}, {"measurement": "Growth inhibition (%) (Day)", "setting": "[1]; [8]", "value": 93.2, "unit": "%"}, {"measurement": "Growth inhibition (%) (Day)", "setting": "[1]; [9]", "value": 89.0, "unit": "%"}, {"measurement": "Anti-tumour activity (in words)", "setting": "[1]", "value": "active"}, {"measurement": "Anti-tumour activity (in words)", "setting": "[2]", "value": "active"}, {"measurement": "Growth inhibition (%) (Day)", "setting": "[2]; day 21, Table 2, carboplatin 60 mg kg-1 i.v. alone or + amifostine 1 x 200 mg kg-1 i.p.", "value": 79.2, "unit": "%"}, {"measurement": "Growth inhibition (%) (Day)", "setting": "[2]; day 28, Table 2, carboplatin 60 mg kg-1 i.v. alone or + amifostine 1 x 200 mg kg-1 i.p.", "value": 76.0, "unit": "%"}, {"measurement": "Growth inhibition (%) (Day)", "setting": "[2]; [10]", "value": 90.3, "unit": "%"}, {"measurement": "Growth inhibition (%) (Day)", "setting": "[2]; [11]", "value": 89.3, "unit": "%"}, {"measurement": "Toxic deaths", "setting": "[3]; [12]", "value": "0/5"}, {"measurement": "Toxic deaths", "setting": "[3]; [13]", "value": "0/6"}, {"measurement": "Toxic deaths", "setting": "[3]; FMa-bearing mice, Table 2, carboplatin 60 mg kg-1 i.v. alone or + amifostine 1 x 200 mg kg-1 i.p.", "value": "0/6"}, {"measurement": "Toxic deaths", "setting": "[3]; [14]", "value": "0/5"}, {"measurement": "Toxic deaths", "setting": "[3]; OVCAR-3-bearing mice, Table 2, carboplatin 60 mg kg-1 i.v. alone or + amifostine 1 x 200 mg kg-1 i.p.", "value": "0/6"}, {"measurement": "AUC of total platinum in OVCAR-3 tumour tissue", "setting": "[7]", "value": "146.8 nmol g(-1) x h"}, {"measurement": "AUC of total platinum in kidney", "setting": "[7]", "value": "368.3 nmol g(-1) x h"}, {"measurement": "AUC of total platinum in liver", "setting": "[7]", "value": "236.4 nmol g(-1) x h"}, {"measurement": "AUC of total platinum in plasma ultrafiltrate", "setting": "[7]", "value": 18.2, "unit": "microM x h"}, {"measurement": "Growth inhibition (%) (Day)", "setting": "[4]; A2780, day 11", "value": 28.8, "unit": "%"}, {"measurement": "Growth inhibition (%) (Day)", "setting": "[4]; A2780, day 14", "value": 14.0, "unit": "%"}, {"measurement": "Anti-tumour activity (in words)", "setting": "[4]", "value": "no significant influence"}]}]}
